Series [1] is described as follows: Half life in human liver microsomes in presence of NADPH incubated for 5 to 45 mins by LC/MS analysis. The series is classed as ADME, Microsome. The following applies: time 5-45 min.
Series [2] is described as follows: Half life in Sprague-Dawley rat at 10 mg/kg,iv administration measured upto 24 hrs by LC-MS/MS analysis. The series is classed as ADME, organism-based. The following applies: in vivo.
Series [3] can be described thus: Tmax in Sprague-Dawley rat at 10 mg/kg,iv administration measured upto 24 hrs by LC-MS/MS analysis. The series is classed as ADME, organism-based. The following applies: in vivo.
Series [4] in a line: Cmax in Sprague-Dawley rat at 10 mg/kg,iv administration measured upto 24 hrs by LC-MS/MS analysis. Format: ADME, organism-based. The following applies: in vivo.
A short description of series [5]: MRT (0 to t) in Sprague-Dawley rat at 10 mg/kg,iv administration measured upto 24 hrs by LC-MS/MS analysis. Format: ADME, organism-based. The following applies: in vivo.
Series [6] in a line: Clearance in Sprague-Dawley rat at 10 mg/kg,iv administration measured upto 24 hrs by LC-MS/MS analysis. The series is classed as ADME, organism-based. The following applies: in vivo.
The subject of series [7] is MDA-MB-231. In words: Induction of ferroptosis in human MDA-MB-231 cells assessed as increase in intracellular ferrous ion level at 0.5 to 2 uM incubated for 24 hrs by ferroOrange probe based flow cytometric analysis. The series is classed as functional, cell-based. The following applies: dose 0.5-2 µM.
Series [8] relates to HCT-116. Kind of series: Induction of ferroptosis in human HCT-116 cells assessed as increase in intracellular ferrous ion level at 0.5 to 2 uM incubated for 24 hrs by ferroOrange probe based confocal laser scanning microscopic analysis. The series is classed as functional, cell-based. The following applies: dose 0.5-2 µM.
For series [9], the system named is MDA-MB-231. In words: Induction of ferroptosis in human MDA-MB-231 cells assessed as downregulation of GPX4 expression incubated for 24 hrs by Western blotting analysis. The series is classed as functional, cell-based. (A western blot detects proteins with antibodies after separation by electrophoresis.)
Series [10] has as its system MDA-MB-231. In words: Induction of cell cycle arrest in human MDA-MB-231 cells assessed as accumulation of cells at G1 phase at 0.5 to 2 uM incubated for 24 hrs by RNase/PI staining based flow cytometric analysis. Format: functional. The following applies: dose 0.5-2 µM.
In series [11] the test system is HCT-116. Kind of series: Induction of cell cycle arrest in human HCT-116 cells assessed as downregulation of phoshorylated Rb at 0.5 to 2 uM incubated for 24 hrs by Western blotting analysis. Format: functional, cell-based. The following applies: dose 0.5-2 µM.
For series [12], the system named is MDA-MB-231. Kind of series: Induction of apoptosis in human MDA-MB-231 cells incubated for 24 hrs by annexin-V-FITC/PI staining based flow cytometric analysis. Format: functional, cell-based. (Flow cytometry measures light scatter and fluorescence of single cells or particles in a stream.)
Series [13] has as its system HCT-116. In words: Induction of apoptosis in human HCT-116 cells assessed as downregulation of BCL-2 expression at 0.5 to 2 uM incubated for 24 hrs by Western blotting analysis. The series is classed as functional, cell-based. The following applies: dose 0.5-2 µM.
Series [14] deals with HCT-116. In words: Induction of apoptosis in human HCT-116 cells assessed as upregulation of Bax expression at 0.5 to 2 uM incubated for 24 hrs by Western blotting analysis. The series is classed as functional, cell-based. The following applies: dose 0.5-2 µM.
Series [15] relates to MDA-MB-231. Kind of series: Antitumor activity against human MDA-MB-231 cells xenografted in BALB/c mouse assessed as tumor growth inhibition at 20 mg/kg,ip administrated for 21 consecutive days. Format: functional. The following applies: read-out: TGI.
Series [16] in a line: Toxicity in BALB/c mouse xenografted with human MDA-MB-231 cells assessed as change in body weight at 40 mg/kg,ip administrated for 21 consecutive days. The series is classed as organism-based. The following applies: in vivo. A general note: A xenograft is tissue or cells of one species grown in another, often human tumour cells in immunodeficient mice.
Series [17] is described as follows: Toxicity in BALB/c mouse xenografted with human MDA-MB-231 cells assessed as morphological change in liver at 20 mg/kg,ip administrated for 21 consecutive days by hematoxylin and eosin staining based analysis. The series is classed as organism-based. The following applies: in vivo.
Series [18] is described as follows: Toxicity in BALB/c mouse xenografted with human MDA-MB-231 cells assessed as morphological change in spleen at 40 mg/kg,ip administrated for 21 consecutive days by hematoxylin and eosin staining based analysis. The following applies: in vivo. The series is classed as organism-based.
Series [19] can be described thus: Toxicity in BALB/c mouse xenografted with human MDA-MB-231 cells assessed as morphological change in lung at 40 mg/kg,ip administrated for 21 consecutive days by hematoxylin and eosin staining based analysis. The following applies: in vivo. Format: organism-based.
Series [20] is described as follows: Toxicity in BALB/c mouse xenografted with human MDA-MB-231 cells assessed as morphological change in kidney at 20 mg/kg,ip administrated for 21 consecutive days by hematoxylin and eosin staining based analysis. Format: organism-based. The following applies: in vivo.
Series [21] deals with MDA-MB-231. In words: Antitumor activity against human MDA-MB-231 cells xenografted in BALB/c mouse assessed as decrease in GPX4 expression at 40 mg/kg,ip administrated for 21 consecutive days by immunohistochemistry. The series is classed as functional, organism-based.
Series [22] is described as follows: Toxicity in ICR mouse assessed as lethal dose at ip administration for 14 days. Format: organism-based. The following applies: in vivo, time 14 day.

Data on one molecule can be found in ChEMBL document CHEMBL5528035, “Design, Synthesis, and Biological Evaluation for First GPX4 and CDK Dual Inhibitors” (J Med Chem, 2024).

Molecules are shown by their SMILES. Calls of active or inactive are those of the source. The rule behind the calls is not given here.

The half-life is the time in which the quantity being followed falls by half. One may read the Tmax as the time from dosing to the highest level. The term Cmax denotes the highest concentration seen after dosing. Usually MRT last stands for the average time that molecules of a dose stay in the body. Usually clearance stands for the rate of elimination divided by the concentration. One may read the LD50 as the dose expected to kill half of the subjects tested. With `COc1ccc2c(c1)NC(=O)/C2=C1\Nc2ccccc2\C1=N/OCCCNC(=O)CCn1cc(COc2ccc(N(C(=O)CCl)C(C(=O)NCCc3ccccc3)c3cccs3)cc2Cl)nn1` (configuration not stated), the half-life is 0.978 h in series [1] and 5.4 h in series [2]. For the same molecule, the time of peak concentration (Tmax) in series [3] came out at 0.8 h. In series [4], the Cmax amounted to 9230 ng/mL. The same molecule gave a mean residence time MRT last at 24 h in series [5] of 3.6 h. The clearance in series [6] is 10.2 mL/min/kg. For the same molecule, the result in the series on MDA-MB-231 [7], in the series with HCT-116 [8], in the series with MDA-MB-231 [10], in the series with HCT-116 [11], in the series on HCT-116 [13] and in the series with HCT-116 [14] was Active. The result in the series with MDA-MB-231 [21] was Active. The Activity result in the series with MDA-MB-231 [9] was “Dose-Dependent Effect”; with MDA-MB-231 [12] it was “Dose-Dependent Effect”; in [16] it was “Non-Toxic”; in series [17], “Non-Toxic”; in series [18], “Non-Toxic”; in [19], “Non-Toxic”. In series [20], the Activity result is reported as “Non-Toxic”. Also, the inhibition in vivo at 20 mg/kg in the series on MDA-MB-231 [15] was 67.8%. For the same molecule, the LD50 at 336 h in series [22] came to 185 mg/kg.
